This passage reports IC50 results from article PMC3256935 (Journal of Medicinal Chemistry, 2011).

SMILES strings stand for the structures.

The test addresses T1, TbNMT (Trypanosoma brucei brucei, UniProt Q388H8).
T1 sequence (Q388H8 1-446): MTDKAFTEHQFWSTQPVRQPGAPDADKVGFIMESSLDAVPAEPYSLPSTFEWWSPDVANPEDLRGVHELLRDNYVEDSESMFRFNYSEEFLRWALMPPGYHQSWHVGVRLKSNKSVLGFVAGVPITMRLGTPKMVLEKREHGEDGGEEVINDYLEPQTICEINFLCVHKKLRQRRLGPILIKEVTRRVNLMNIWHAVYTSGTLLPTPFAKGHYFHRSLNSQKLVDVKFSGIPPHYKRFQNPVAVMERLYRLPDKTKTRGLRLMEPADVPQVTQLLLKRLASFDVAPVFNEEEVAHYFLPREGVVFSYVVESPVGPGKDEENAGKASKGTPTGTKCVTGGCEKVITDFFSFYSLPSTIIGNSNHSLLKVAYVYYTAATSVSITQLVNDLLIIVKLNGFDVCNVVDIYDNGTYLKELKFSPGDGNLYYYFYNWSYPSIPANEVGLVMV
In words: biochemical.

`Cc1nn(C)c(C)c1NCc1ccc(Br)cc1` [Compound 21]: the IC50 (usually the midpoint of a concentration-inhibition curve) is > 100 µM.
